In patent US7018989B2, “Chemical compounds” (University College Cardiff Consultants, LTD, priority 1995, dated 2006):
Read-outs that look alike come from different tables or passages of the source.

Legend:
HIV-2 [1] = assay: Inhibition of HIV-2 in CEM cells (giant cell formation); type: cell-based; conditions: read-out: HIV2 CEM: EC50 for inhibition of HIV-2 in CEM cells
Procedure: (§1) Cells were infected with HIV-1 as previously described [Balzarini et al. AIDS (1991), 5, 21–28]. Briefly, 5×10^5 cells per milliliter were infected with HIV-1 or HIV-2 at 100 CCID50 (50% cell culture infective dose) per milliliter of cell suspension. Then 100 μL of the infected cell suspension was transferred to microtiter plate wells and mixed with 100 μL of the appropriate dilutions of the test compounds. After 4 days giant cell formation was recorded microscopically in the HIV-infected cell cultures [CEM], and after 5 days the number of viable cells was determined by trypan blue staining of the HIV-infected cell cultures [MT4].
(§2) The data columns are, in order: • HIV1 MT4: EC50 in μM for inhibition of HIV-1 in MT4 cells. • HIV2 MT4: EC50 in μM for inhibition of HIV-2 in MT4 cells. • CC50 MT4: CC50 in μM for toxicity to MT-4 cells. • HIV1 CEM: EC50 in μM for inhibition of HIV-1 in CEM cells. • HIV2 CEM: EC50 in μM for inhibition of HIV-2 in CEM cells. • HIV2 CEM-TK-: EC50 in μM for inhibition of HIV-2 in CEM/TK^− cells. • CC50 CEM: CC50 in μM for toxicity to CEM cells. • EC50 MSV: EC50 in μM for inhibition of MSV • MCC MSV: Minimum cytotoxic concentration in MSV assay

HIV-1 = assay: microbe, parasite or virus in culture; conditions: read-out: HIV1 CEM: EC50 for inhibition of HIV-1 in CEM cells
Procedure: as §1, §2

CEM cells = assay: Toxicity to CEM cells; type: cell-based, human
Procedure: as §1, §2

HIV-2 [2] = assay: Inhibition of HIV-2 in CEM/TK- cells; type: cell-based
Procedure: as §1, §2

MSV = assay: Inhibition of MSV (in vitro); type: cell-based, Moloney Sarcoma Virus
From the text: as §2

[3] = Minimum cytotoxic concentration in MSV assay; type: cell-based
From the text: as §2, with “CEM/TK^-” for “CEM/TK^−”, “[…]:” for “MSV • MCC MSV:”

[4] = Table 6, mean of two or more repeat experiments
[5] = Table 6, mean of two or more repeat experiments, read-out: HIV2 CEM-TK-: EC50 for inhibition of HIV-2 in CEM/TK^− cells
[6] = CEM/TK- cells, HIV-2, read-out: HIV2 CEM-TK-: EC50 for inhibition of HIV-2 in CEM/TK- cells

SMILES | EC50 (HIV-2 [1]; [4]) | EC50 (HIV-1; [4]) | CC50 (CEM cells; [4]) | EC50 (HIV-2 [2]; [5]) | EC50 (HIV-2 [1]; CEM cells, HIV-2) | EC50 (HIV-1; CEM cells, HIV-1) | further results
CCCCCCOP(=O)(OCCCCCC)OCC1C=CC(n2cc(C)c(=O)[nH]c2=O)O1 (stereo not shown) [Compound 321] | > 42 µM | > 42 µM | 36 µM | > 42 µM |  |  | 
Cc1cn([C@H]2C=C[C@@H](COP(=O)(O)O)O2)c(=O)[nH]c1=O [Compound 775] | 0.95 µM | 0.8 µM | 174 µM | 33 µM |  |  | 
CCCCCCO[PH](=O)OCC1C=CC(n2cc(C)c(=O)[nH]c2=O)O1 (stereo not shown) [Compound 786] | 0.5 µM | 0.6 µM | 150 µM | 30 µM |  |  | 
COCCOCCO[PH](=O)OCC1C=CC(n2cc(C)c(=O)[nH]c2=O)O1 (stereo not shown) [Compound 787] | 0.95 µM | 0.65 µM | 144 µM | 45 µM |  |  | 
CCO[PH](=O)OCC1C=CC(n2cc(C)c(=O)[nH]c2=O)O1 (stereo not shown) [Compound 788] | 0.6 µM | 0.65 µM | 115 µM | 30 µM |  |  | 
CCCCCCCCCCO[PH](=O)OCC1C=CC(n2cc(C)c(=O)[nH]c2=O)O1 (stereo not shown) [Compound 789] | 0.65 µM |  | 64 µM | 40 µM |  |  | 
CCCCO[PH](=O)OCC1C=CC(n2cc(C)c(=O)[nH]c2=O)O1 (stereo not shown) [Compound 790] | 0.9 µM | 0.65 µM | 177 µM | 30 µM |  |  | 
CCCCCCCCO[PH](=O)OCC1C=CC(n2cc(C)c(=O)[nH]c2=O)O1 (stereo not shown) [Compound 791] | 0.6 µM | 0.4 µM | 90 µM | 23 µM |  |  | 
CO[PH](=O)OCC1C=CC(n2cc(C)c(=O)[nH]c2=O)O1 (stereo not shown) [Compound 817] | 0.55 µM | 0.7 µM | 146 µM | 20 µM |  |  | 
CCCCCCCCCCCCNP(=O)(OCC1C=CC(n2cc(C)c(=O)[nH]c2=O)O1)Oc1ccccc1 (stereo not shown) [Compound 828] | > 10 µM | > 10 µM | 14 µM |  |  |  | 
CCCCCCCCNP(=O)(OCC1C=CC(n2cc(C)c(=O)[nH]c2=O)O1)Oc1ccccc1 (stereo not shown) [Compound 829] | ≥ 10 µM | > 10 µM | 23 µM |  |  |  | 
CCCCNP(=O)(OCC1C=CC(n2cc(C)c(=O)[nH]c2=O)O1)Oc1ccccc1 (stereo not shown) [Compound 840] | 100 µM | 140 µM | > 250 µM | 125 µM |  |  | 
CC(NP(=O)(OCC1C=CC(n2ccc(=O)[nH]c2=O)O1)Oc1ccccc1)C(=O)OCc1ccccc1 (stereo not shown) [Compound 849] | 15 µM | 23 µM | 115 µM | 10 µM |  |  | 
Cc1cn(C2C=CC(COP(=O)(O)Oc3ccccc3)O2)c(=O)[nH]c1=O (stereo not shown) [Compound 853] | 0.7 µM | 0.65 µM | 153 µM | 23 µM |  |  | 
CCCNP(=O)(OCC1C=CC(n2cc(C)c(=O)[nH]c2=O)O1)Oc1ccccc1 (stereo not shown) [Compound 858] | > 250 µM | > 250 µM | > 250 µM | > 250 µM |  |  | 
CCCCCCNP(=O)(OCC1C=CC(n2cc(C)c(=O)[nH]c2=O)O1)Oc1ccccc1 (stereo not shown) [Compound 859] | > 50 µM | > 50 µM | 145 µM | > 50 µM |  |  | 
Cc1cn(C2C=CC(COP(=O)(OCCC#N)Oc3ccccc3)O2)c(=O)[nH]c1=O (stereo not shown) [Compound 861] | 0.95 µM | 1.2 µM | ≥ 250 µM | 17.5 µM |  |  | 

SMILES | EC50 (HIV-2 [1]; [4]) | EC50 (HIV-1; [4]) | CC50 (CEM cells; [4]) | EC50 (HIV-2 [2]; [5]) | EC50 (HIV-2 [1]; CEM cells, HIV-2) | EC50 (HIV-1; CEM cells, HIV-1) | further results
COC(=O)C1CCCN1P(=O)(OCC1C=CC(n2cc(C)c(=O)[nH]c2=O)O1)Oc1ccccc1 (stereo not shown) [Compound 879] | > 10 µM | > 10 µM | 42.5 µM | > 10 µM |  |  | 
Cc1cn(C2C=CC(COP(=O)(Oc3ccccc3)Oc3ccccc3)O2)c(=O)[nH]c1=O (stereo not shown) [Compound 880] | 25 µM |  | ≥ 250 µM | 75 µM |  |  | 
COC(=O)[C@@H](C)NP(=O)(OCC1C=CC(n2cc(C)c(=O)[nH]c2=O)O1)Oc1ccccc1 (stereo partly shown) [Compound 932] | 2 µM | 3 µM | > 250 µM | 2.5 µM |  |  | EC50 (MSV; Table 6): ≥ 100 µM; MCC MSV: Minimum cytotoxic concentration in MSV assay ([3]; Table 6): >100
Cc1cn(C2C=CC(COP(=O)(Oc3ccccc3)N3CCCC3C(=O)OCc3ccccc3)O2)c(=O)[nH]c1=O (stereo not shown) [Compound 933] | 12.5 µM | 35 µM | 92 µM | > 50 µM |  |  | EC50 (MSV; Table 6): > 100 µM; MCC MSV: Minimum cytotoxic concentration in MSV assay ([3]; Table 6): >100
CCOC(=O)C(C)NP(=O)(OCC1C=CC(n2cc(C)c(=O)[nH]c2=O)O1)Oc1ccccc1 (stereo not shown) [Compound 951] | 0.07 µM | 0.1 µM | 55 µM |  |  |  | EC50 (MSV; Table 6): 25 µM; MCC MSV: Minimum cytotoxic concentration in MSV assay ([3]; Table 6): >100
Cc1cn([C@H]2C=C[C@@H](COP(=O)(O)NCC(=O)O)O2)c(=O)[nH]c1=O [Compound 1163, 2′,3′-dideoxy-2′,3′-didehydrothymidine 5′-(glycinyl phosphate)] | 5 µM | 2 µM | > 250 µM | 130 µM |  |  | 
CCCCCCCCCCCCNP(=O)(OCC1OC(n2cc(C)c(=O)[nH]c2=O)CC1N=[N+]=[N-])Oc1ccccc1 (stereo not shown) [Cpd 661] |  |  |  |  | > 7 µM | > 7 µM | EC50 (HIV-2 [2]; [6]): > 7 µM
COC(=O)C(C)NP(=O)(OC)OCC1OC(n2cc(C)c(=O)[nH]c2=O)CC1N=[N+]=[N-] (stereo not shown) [Cpd 739] |  |  |  |  | 18 µM | 10 µM | CC50 (CEM cells; CEM cells): > 250 µM; EC50 (HIV-2 [2]; [6]): > 250 µM
CCCCCCCCn1c(=O)c(C)cn(C2CC(N=[N+]=[N-])C(COP(=O)(NC(C)C(=O)OC)Oc3ccccc3)O2)c1=O (stereo not shown) [Cpd 774] |  |  |  |  | > 10 µM | > 10 µM | CC50 (CEM cells; CEM cells): 15 µM
COC(=O)C(C)NP(=O)(OCC1OC(n2cc(C)c(=O)[nH]c2=O)CC1N=[N+]=[N-])Oc1ccc(Br)cc1Br (stereo not shown) [Cpd 777] |  |  |  |  | 0.55 µM | 0.5 µM | CC50 (CEM cells; CEM cells): 55 µM; EC50 (HIV-2 [2]; [6]): 0.19 µM
COC(=O)C(C)NP(=O)(OCC1OC(n2cc(C)c(=O)[nH]c2=O)CC1N=[N+]=[N-])Oc1c(F)c(F)c(F)c(F)c1F (stereo not shown) [Cpd 780] |  |  |  |  | 33 µM | 23 µM | CC50 (CEM cells; CEM cells): 106 µM; EC50 (HIV-2 [2]; [6]): 100 µM
Cc1cn(C2CC(N=[N+]=[N-])C(COP(=O)(OCCC#N)Oc3ccccc3)O2)c(=O)[nH]c1=O (stereo not shown) [Cpd 846] |  |  |  |  | 14 µM | 13 µM | CC50 (CEM cells; CEM cells): > 250 µM; EC50 (HIV-2 [2]; [6]): > 250 µM
Cc1cn(C2CC(N=[N+]=[N-])C(COP(=O)(OCCC#N)OCC(F)(F)F)O2)c(=O)[nH]c1=O (stereo not shown) [Cpd 847] |  |  |  |  | 9 µM | 12 µM | CC50 (CEM cells; CEM cells): > 250 µM; EC50 (HIV-2 [2]; [6]): > 250 µM
Cc1cn(C2CC(N=[N+]=[N-])C(COP(=O)(O)OCC(F)(F)F)O2)c(=O)[nH]c1=O (stereo not shown) [Cpd 855] |  |  |  |  | 17.5 µM | 17.5 µM | CC50 (CEM cells; CEM cells): > 250 µM; EC50 (HIV-2 [2]; [6]): > 250 µM
CCCCCCOP(=O)(OCCC#N)OCC1OC(n2cc(C)c(=O)[nH]c2=O)CC1N=[N+]=[N-] (stereo not shown) [Cpd 856] |  |  |  |  | 25 µM | 13 µM | CC50 (CEM cells; CEM cells): > 250 µM; EC50 (HIV-2 [2]; [6]): > 250 µM
CCCCCCOP(=O)(O)OCC1OC(n2cc(C)c(=O)[nH]c2=O)CC1N=[N+]=[N-] (stereo not shown) [Cpd 857] |  |  |  |  | 10 µM | 5 µM | CC50 (CEM cells; CEM cells): > 250 µM; EC50 (HIV-2 [2]; [6]): > 250 µM
COC(=O)C(Cc1ccccc1)NP(=O)(OCC1OC(n2cc(C)c(=O)[nH]c2=O)CC1N=[N+]=[N-])Oc1ccccc1 (stereo not shown) [Cpd 941] |  |  |  |  | > 50 µM | > 50 µM | EC50 (MSV; MSV): > 100 µM; MCC MSV: Minimum cytotoxic concentration in MSV assay ([3]; MSV assay): >100; CC50 (CEM cells; CEM cells): 115 µM
